Source: patent publication US8900636B2, “Controlled release compositions” (Evonik Corporation, priority 2003, dated 2014)

Assay: Stability of free peptide incubated in release medium (HPLC)
Assay type: physicochemical
Conditions: PBS, pH 7.2, 37° C., after 49 days
Experimental: Octreotide acetate as the free peptide was measured to be 95% intact by high-pressure liquid chromatography (HPLC) following incubation in the release medium (PBS, pH 7.2, 37° C.) after 49 days. In contrast, incubation of octreotide acetate PLGA microparticle formulations produced 55% of modified peptide species after 70 days in the release medium (PBS, pH 7.2, 37° C., Table 2). […] The masses found were consistent with random acylation, for example, peptide plus one or two glycolic or lactic acid monomers in any combination. It may be that acylation products arise from attack on PLGA fragments or the polymer backbone by nucleophilic moieties in octreotide. At a lower pH these moieties likely would be protonated reducing their nucleophilicity and consequently the amount of acylated product. It was observed that formation of acylated byproducts for octreotide acetate PLGA microparticles incubated in 100 mM sodium acetate (NaOAc, pH 4.0) buffer was reduced to 1.25% at 49 days, in marked contrast to the results for PBS buffer (55%).

C[C@@H](O)[C@@H]1NC(=O)[C@H](CCCCN)NC(=O)[C@@H](Cc2c[nH]c3ccccc23)NC(=O)[C@H](Cc2ccccc2)NC(=O)[C@@H](NC(=O)[C@H](N)Cc2ccccc2)CSSC[C@@H](C(=O)N[C@H](CO)[C@@H](C)O)NC1=O [Octreotide acetate, octreotide acetate]
intact peptide by HPLC: 95%
